Assay results as given in US4906661A, “Esters of aryloxypropanolamine derivatives” (E. I. Du Pont de Nemours and Company, priority 1989, dated 1990).
Values joined by “and” are separate entries in the source; they are usually repeats but may differ in a detail not shown here. Equal values may be shown once.

What was measured:
[1] = test system: β-adrenergic receptors, guinea pig trachea vs right atria; assay: Cardioselectivity, KB trachea/KB atria; assay type: cell-based; details: 10^(pA2 atria-pA2 trachea); ratio greater than one indicates cardioselectivity
Method: Each tissue was suspended between a fixed glass rod and a Statham Universal Transducer connected to a Beckman recorder. Atria were allowed to beat spontaneously under a loading tension of approximately 0.5 gm. Intrinsic depressant or stimulant activity was determined for each compound by progressively increasing concentrations in the tissue baths at 60-minute intervals. Tissues were not washed between increments. The maximum concentration showing little or no cardiodepressant activity was chosen for blockade experiments. Changes in rate in response to isoproterenol, a standard β-receptor agonist, were measured in the absence and presence of test compounds. Spiral strips of guinea pig trachea were suspended under 5 gm resting tension and incubated with phentolamine, tropolone and cocaine. Active tension was generated by addition of carbachol (3.0×10^-7 M) and decreases in tension in response to isoproterenol were quantitated. Cumulative concentration-response curves were produced with isoproterenol both before and after 60-minute incubation of test compounds with atria and trachea. […] The degree of cardioselectivity was estimated from the ratio, KB trachea/KB atria (10^(pA2 atria-pA2 trachea)). A ratio greater than one indicates cardioselectivity. Test drugs were dissolved in distilled water and added to the bath (30 ml) in a volume of 10 or 100 μl.

[2] = test system: heart rate response to isoproterenol; assay: Duration and potency of beta-blocking action in vivo, 3-hour infusion in anesthetized dogs, isoproterenol challenge; set-up: species or system dog; details: Table II; for Recovery Time 50%: 50% recovery from β-blockade after termination of infusion; for Recovery Time 80%: 80% recovery from β-blockade after termination of infusion; for % I, percent inhibition of heart rate response to isoproterenol: end of 3-hour infusion, isoproterenol 0.5 μg/kg
Method: The duration of β-blockade was determined In vivo using pentobarbital-anesthetized dogs instrumented for measurement of heart rate using a Beckman cardiotachometer triggered electronically by a phasic aortic blood pressure signal. Both vagus nerves were served in the cervical region and the animals were mechanically ventilated. The experimental design used employed a 3-hour infusion of test compound. Bolus doses of isoproterenol (0.5 μg/kg) were used to assess the degree of β-blockade and recovery from β-blockade after […] of the infusion. The doses were spaced at 10-minute intervals and were given before, during and following the infusion of test compounds. The infusion rate was adjusted so that at the end of the 3-hour infusion period the degree of isoproterenol inhibition averaged about 50% of control. Following termination of blocker infusion, percent recovery from β-blockade was computed and the time associated with 80% recovery estimated.
^c Time in minutes for 50% recovery from 50% blockade levels after 3
Infusions of drug. Number of experiments is equal to or greater than thre
for each compound unless noted otherwise. Tabulated data are mean values
^c The betablocking activities were evaluated Invivo in a canine
model. The betablocker was infused in the animal for 3 hours with the dos
adjusted to give approximately 50%. blockage of the Isoproternolinduced
tachycardia. The infusion was then terminated and the time required for
80% recovery of blockade was recorded as duration of action of the
compound. The amount of drug infused during the 3 hours was averaged and
expressed as potency in ug/kg/min.

[3] = target: β2 receptors, guinea pig trachea (Cavia porcellus, UniProt Q8K4Z4); assay: cell-based; details: Table I; guinea pig trachea, vs isoproterenol; -log KB; read-out: PA2 Trachea (converted)
Method: Each tissue was suspended between a fixed glass rod and a Statham Universal Transducer connected to a Beckman recorder. Atria were allowed to beat spontaneously under a loading tension of approximately 0.5 gm. Intrinsic depressant or stimulant activity was determined for each compound by progressively increasing concentrations in the tissue baths at 60-minute intervals. Tissues were not washed between increments. […] Changes in rate in response to isoproterenol, a standard β-receptor agonist, were measured in the absence and presence of test compounds. Spiral strips of guinea pig trachea were suspended under 5 gm resting tension and incubated with phentolamine, tropolone and cocaine. Active tension was generated by addition of carbachol (3.0×10^-7 M) and decreases in tension in response to isoproterenol were quantitated. Cumulative concentration-response curves were produced with isoproterenol both before and after 60-minute incubation of test compounds with atria and trachea. […] The blocking potency of test compounds was estimated by computing pA2 values (-log KB) by the method of Furchgott, the Pharmacological Differentiation of Adrenergic Receptors, Ann. […] A ratio greater than one indicates cardioselectivity. Test drugs were dissolved in distilled water and added to the bath (30 ml) in a volume of 10 or 100 μl.

[4] = Enzymatic hydrolysis by dog liver homogenate (procedure C); assay type: in vitro ADME; details: for remaining at 1 h / remaining at 2 h / half-life: dog, liver homogenate; for remaining at 1 h / remaining at 2 h: 37° C., procedure C; for remaining at 1 h: read-out: % Drug remaining, 1 HR, dog liver homogenate; for remaining at 2 h: read-out: % Drug remaining, 2 HR, dog liver homogenate; for half-life: approximate value, determined by procedure C, read-out: T1/2 dog liver homogenate
Description: Chemicals--Acetonitrile was "HPLC" grade. Distilled water was used to dissolve the compounds and 0.01 N HCl was used to dissolve compounds requiring an acidic pH for dissolution. Enzyme Source--Fresh aqueous humor was collected from eyes of dogs using a 23-gauge needle while fresh dog blood was collected into heparinized Vacutainer tubes. Fresh liver was homogenized in 0.9% NaCl using a Potter-Elvehjem Teflon pestle and glass homogenizer to make a 25% (W/V) homogenate. […] Denatured tissue controls were prepared by adding 2.0 ml of acetonitrile into 0.5 ml of aqueous humor, blood, or liver homogenate to destroy esterase activities prior to addition of the β-blockers. These controls were then incubated at 37° C. for 120 min. […] Sample Processing and Data Analyses--All samples were centrifuged at 4000 RPM for 10 min to sediment denatured proteins. The resultant supernatants were transferred to WISP.cndot. vials and analyzed using an HPLC assay developed for beta blockers. The hydrolysis of β-blockers by aqueous humor, blood, and liver homogenate was determined by disappearance of the compounds. The extent of enzymatic hydrolysis by each tissue was determined by comparing the amount of each compound (absolute peak area) recovered at each time point to the amount of each compound (absolute peak area) in denatured tissue control and aqueous control samples.

Chain of β2 receptors, guinea pig trachea (Q8K4Z4 whole entry): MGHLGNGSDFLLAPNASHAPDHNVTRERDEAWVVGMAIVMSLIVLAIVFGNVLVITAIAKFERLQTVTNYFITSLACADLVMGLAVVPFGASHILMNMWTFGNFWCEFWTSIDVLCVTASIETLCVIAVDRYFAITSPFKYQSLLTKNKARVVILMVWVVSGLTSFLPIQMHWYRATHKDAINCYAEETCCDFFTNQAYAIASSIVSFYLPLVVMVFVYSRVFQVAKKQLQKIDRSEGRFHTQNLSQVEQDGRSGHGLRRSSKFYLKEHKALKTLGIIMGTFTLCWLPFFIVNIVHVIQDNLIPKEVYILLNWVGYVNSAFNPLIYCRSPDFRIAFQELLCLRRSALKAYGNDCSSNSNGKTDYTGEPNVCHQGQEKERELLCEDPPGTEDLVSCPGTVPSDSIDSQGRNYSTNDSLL

| Structure (SMILES) | Cardioselectivity KB (Trachea)/KB (Atria) [1] | Recovery Time 50% [2] | Recovery Time 80% [2] | % I, percent inhibition of heart rate response to isoproterenol [2] | Kb [3] [nM] | remaining at 1 h [4] [%] | remaining at 2 h [4] [%] | half-life [4] [h] | hydrolysis in liver homogenate ([4]; within 60 minutes) |
| --- | --- | --- | --- | --- | --- | --- | --- | --- | --- |
| COC(=O)c1ccccc1OCC(O)CNCCNC(C)=O (stereo not shown) [Example I, Methyl 2-[2-Hydroxy-3-[N-2(-acetamidoethyl)amino]propoxy]benzoate] | 2 | 8 ± 1 min | 18 ± 1 min | 54 ± 2% | 100 | 0 | 0 | < 1 | completely hydrolyzed |
| COC(=O)c1ccccc1OCC(O)CNCCNC(=O)C(C)C (stereo not shown) [II, Methyl 2-[2-Hydroxy-3-[N-[2-(2-methylpropionamido)ethyl]amino]propoxy]benzoate] | 4 | 7 ± 1 min | 17 ± 1 min | 59 ± 2% | 31.6 | 0 | 0 | < 1 |  |
| COC(=O)c1ccccc1OCC(O)CNCCNC(=O)Cc1ccccc1 (stereo not shown) [III, Methyl 2-[2-Hydroxy-3-[N-[2-(phenylacetamido)ethyl]amino]propoxy]benzoate] | 4 | 20 min and 19 min | 40 min and 45 min | 57% and 60% | 20 | 0 | 0 | < 1 |  |
